According to PMC7414031, “Correlation between hemolytic activity, cytotoxicity and systemic in vivo toxicity of synthetic antimicrobial peptides” (Scientific Reports, 2020):
Values after ≈ are worked out from the molar mass of the structure shown. Peptide text beside a SMILES is read from it.

Assays:
Staphylococcus aureus = tested on: Staphylococcus aureus; set-up: method as in PMID 30842436; conditions: cited from earlier work
in vitro [1] = assay type: cell-based, dog; conditions: dog
Protocol: (§1) The haemolytic activity of the 24 structurally related peptides (Table 1) was evaluated in erythrocytes from four different species (human, canine, bovine and rat) employing standard methodology. The subsequent release of haemoglobin was used to assess haemolytic activity as function of peptide and peptidomimetic concentration, with concentrations ranging from 0.15 to 150 µM (Presented in whole in Supplementary information Table S1–S4).
(§2) Human and rat (Sprague–Dawley) blood samples were purchased by Bioreclamation IVT (Westbury, NY, USA), collected in tubes containing heparin as anticoagulant and stored at 4 °C before use. Dog and bovine whole blood was collected from in-house animals at Zoetis Animal Health, Kalamazoo, Michigan and stored at 4 °C in tubes containing heparin as anticoagulant. 10 mL of each whole blood sample were centrifuged at 1,500 × g for 5 min and the resulting plasma fraction was removed from the samples. The pellets were washed with an equal volume (10 mL) of saline, mixing by inversion. The centrifuging and washing steps were repeated 5 times. After the last washing step, a volume of PBS was added, and the resulting samples were diluted 1:10 with PBS to yield an RBC concentration of ~ 5 × 10^8 RBC/mL. The assay was performed in a 384-well polypropylene microplate (Greiner 784201, Greiner Bio-One International, GMBH) through a Bravo Liquid Handling Platform 384 system (Agilent Technologies, Santa Clara, CA, USA) according to the previously published procedures. The compounds were tested in serial 1:1 dilutions in PBS, with final concentrations ranging from 150 to 1.2 µM. Melittin was used as reference lytic peptide. 1% TritonX100 and PBS were used as positive and negative (diluent) controls, respectively. The final concentrations were obtained by adding to the wells 7 µL of each solution, melittin or PBS, followed by 63 µL of RBCs to each well. The plate was sealed, shaken on a plate shaker for 20 s, incubated for one hour at 37 °C. Finally, it was centrifuged at 1,500 × g for 5 min at room temperature. 60 µL of supernatants were removed from all plate wells via a Bravo 384 robot and transferred to a flat-bottomed 384-well plate (Greiner UV-Star #7810801, Greiner Bio-One International, GMBH). The plate was centrifuged at 1,000 g for 1 min to remove air bubbles and optical density was measured at 405 nm using a plate reader. Percentage of haemolysis was calculated with the following equation: %haemolysis=(absorbance of test sample)-absorbance of diluent/absorbance of positive control-absorbance of diluent×100.

canine erythrocytes = assay: in vitro; assay type: cell-based, dog; conditions: for IC10 haemolysis: canine erythrocytes; for IC50: red cells of canine
Protocol: as §1, §2

human erythrocytes = assay: in vitro; assay type: cell-based; conditions: for IC10 haemolysis: human erythrocytes; for IC50: red cells of human
Protocol: as §1, §2

in vitro [2] = assay type: cell-based, human; conditions: human
Protocol: as §1, §2

in vitro [3] = assay type: cell-based, bovine; conditions: bovine
Protocol: as §1, §2

in vitro [4] = assay type: cell-based, rat (Sprague–Dawley); conditions: Sprague-Dawley, rat
Protocol: as §1, §2

rat erythrocytes = assay: in vitro; assay type: cell-based, rat (Sprague–Dawley); conditions: for IC10 haemolysis: rat erythrocytes; for IC50: red cells of rat
Protocol: as §1, §2

[5] = tested on: Staphylococcus pseudintermedius; conditions: cited from earlier work
Pseudomonas aeruginosa = tested on: Pseudomonas aeruginosa; set-up: method as in PMID 30842436; conditions: cited from earlier work
bovine erythrocytes = assay: in vitro; assay type: cell-based; conditions: bovine erythrocytes
Protocol: as §1, §2

SMILES	IC50 (canine erythrocytes) [µM]	IC50 (human erythrocytes) [µM]	IC50 (rat erythrocytes) [µM]	MIC against Staphylococcus aureus (Staphylococcus aureus) [µg/mL]	hemolysis at 1 h, 150 µM (in vitro [1]) [%]	IC10 haemolysis (canine erythrocytes) [µM]	IC10 haemolysis (human erythrocytes) [µM]	hemolysis at 1 h, 150 µM (in vitro [2]) [%]	hemolysis at 1 h, 150 µM (in vitro [3]) [%]	hemolysis at 1 h, 150 µM (in vitro [4]) [%]	IC10 haemolysis (rat erythrocytes) [µM]	MIC against Staphylococcus pseudintermedius [5] [µg/mL]	MIC against Pseudomonas aeruginosa (Pseudomonas aeruginosa) [µg/mL]	IC10 haemolysis (bovine erythrocytes) [µM]	Haemolysis at 80 µM (in words) (canine erythrocytes)	Haemolysis at 80 µM (in words) (human erythrocytes)	Haemolysis at 80 µM (in words) (rat erythrocytes)
CC(C)C[C@H](NC(=O)[C@H](CCCCN)NC(=O)[C@H](Cc1cccc2ccccc12)NC(=O)[C@H](Cc1ccccc1)NC(=O)[C@@H](N)Cc1cccc2ccccc12)C(=O)N[C@@H](CCCCN)C(=O)N[C@@H](CCCCN)C(N)=O [Compound 16, (1-Nal)Ala-Phe-(1-Nal)Ala-Lys-Leu-Lys-Lys] (HELM PEPTIDE1{[N[C@@H](Cc1cccc2ccccc12)C(=O)[*:2]].F.[O=C([C@H](Cc1cccc2ccccc12)N[*:1])[*:2]].K.L.K.K.[am]}$$$$V2.0)	> 150	134	> 150	16 to 32	27.7	16.4	47.4	55.5	30.6	11	145.0	8 to 16	64 (≈ 60.6 µM)	45.2			
CC(C)C[C@@H](NC(=O)[C@H](CCCCN)NC(=O)[C@@H](N)CCCCN)C(=O)N[C@@H](CCCCN)C(=O)N[C@H](Cc1cccc2ccccc12)C(=O)N[C@H](Cc1ccccc1)C(=O)N[C@H](Cc1cccc2ccccc12)C(N)=O [Compound 10, Lys-Lys-Leu-Lys-(1-Nal)Ala-Phe-(1-Nal)Ala] (HELM PEPTIDE1{K.K.[dL].K.[O=C([C@@H](Cc1cccc2ccccc12)N[*:1])[*:2]].[dF].[O=C([C@@H](Cc1cccc2ccccc12)N[*:1])[*:2]].[am]}$$$$V2.0)	> 150	> 150	> 150	16 (≈ 15.1 µM)	36.3	43.4	> 150	< 8	< 8	< 8	> 150	4 to 8	16 to 32				
CC(C)C[C@H](NC(=O)[C@H](CCCCN)NC(=O)[C@H](CCCCN)NC(=O)[C@@H](N)CCCCN)C(=O)N[C@@H](Cc1cccc2ccccc12)C(=O)N[C@@H](Cc1ccc(O)cc1)C(=O)N[C@@H](Cc1cccc2ccccc12)C(N)=O [Compound 19, Lys-Lys-Lys-Leu(1-Nal)Ala-Tyr-(1-Nal)Ala] (HELM PEPTIDE1{K.K.K.L.[O=C([C@H](Cc1cccc2ccccc12)N[*:1])[*:2]].Y.[O=C([C@H](Cc1cccc2ccccc12)N[*:1])[*:2]].[am]}$$$$V2.0)	20.8	51.1	74.9	> 64	101	13.2	13.5	82.7	< 8	101	45.0		> 64		near total haemolysis	near total haemolysis	near total haemolysis
CC(C)C[C@@H](NC(=O)[C@H](CCCCN)NC(=O)[C@@H](Cc1ccc2ccccc2c1)NC(=O)[C@@H](Cc1ccccc1)NC(=O)[C@H](N)Cc1ccc2ccccc2c1)C(=O)N[C@@H](CCCCN)C(=O)N[C@@H](CCCCN)C(N)=O [Compound 3, (2-Nal)Ala-Phe-(2-Nal)Ala-Lys-Leu-Lys-Lys] (HELM PEPTIDE1{[N[C@H](Cc1ccc2ccccc2c1)C(=O)[*:2]].[dF].[O=C([C@@H](Cc1ccc2ccccc2c1)N[*:1])[*:2]].K.[dL].K.K.[am]}$$$$V2.0)	> 150	> 150	> 150	32 to 64	10.5	118.3	> 150	< 8	< 8	< 8	> 150	16 (≈ 15.1 µM)	> 64				

More lines, main results first:

IC50 (canine erythrocytes) [µM]	IC50 (human erythrocytes) [µM]	IC50 (rat erythrocytes) [µM]	SMILES	MIC against Staphylococcus aureus (Staphylococcus aureus) [µg/mL]	hemolysis at 1 h, 150 µM (in vitro [1]) [%]	IC10 haemolysis (canine erythrocytes) [µM]	IC10 haemolysis (human erythrocytes) [µM]	hemolysis at 1 h, 150 µM (in vitro [2]) [%]	hemolysis at 1 h, 150 µM (in vitro [3]) [%]	hemolysis at 1 h, 150 µM (in vitro [4]) [%]	IC10 haemolysis (rat erythrocytes) [µM]	MIC against Staphylococcus pseudintermedius [5] [µg/mL]	MIC against Pseudomonas aeruginosa (Pseudomonas aeruginosa) [µg/mL]	IC10 haemolysis (bovine erythrocytes) [µM]	Haemolysis at 80 µM (in words) (canine erythrocytes)	Haemolysis at 80 µM (in words) (human erythrocytes)	Haemolysis at 80 µM (in words) (rat erythrocytes)
> 150	> 150	> 150	CC(C)C[C@@H](NC(=O)[C@H](CCCCN)NC(=O)[C@H](CCCCN)NC(=O)[C@@H](N)CCCCN)C(=O)N[C@H](Cc1ccc2ccccc2c1)C(=O)N[C@H](Cc1ccccc1)C(=O)N[C@H](Cc1ccc2ccccc2c1)C(N)=O [Compound 12, Lys-Lys-Lys-Leu-(2-Nal)Ala-Phe-(2-Nal)Ala] (HELM PEPTIDE1{K.K.K.[dL].[O=C([C@@H](Cc1ccc2ccccc2c1)N[*:1])[*:2]].[dF].[O=C([C@@H](Cc1ccc2ccccc2c1)N[*:1])[*:2]].[am]}$$$$V2.0)	8 to 16	50.2	29.3	34.6	43.5	< 8	17.9	105.8	2 to 4	32 (≈ 30.3 µM)				
> 150	> 150	> 150	CC(C)C[C@@H](NC(=O)[C@H](CCCCN)NC(=O)[C@H](CCCCN)NC(=O)[C@@H](N)CCCCN)C(=O)N[C@H](Cc1cccc2ccccc12)C(=O)N[C@H](Cc1ccc(O)cc1)C(=O)N[C@H](Cc1cccc2ccccc12)C(N)=O [Compound 21, Lys-Lys-Lys-Leu-(1-Nal)Ala-Tyr-(1-Nal)Ala] (HELM PEPTIDE1{K.K.K.[dL].[O=C([C@@H](Cc1cccc2ccccc12)N[*:1])[*:2]].[dY].[O=C([C@@H](Cc1cccc2ccccc12)N[*:1])[*:2]].[am]}$$$$V2.0)	32 to 64	19.9	48.2	> 150	< 8	16	< 8	> 150	2 to 4	8 (≈ 7.46 µM)	109.7			
87	109	87.7	CC(C)C[C@H](NC(=O)[C@H](CCCCN)NC(=O)[C@H](CCCCN)NC(=O)[C@@H](N)CCCCN)C(=O)N[C@@H](Cc1ccc2ccccc2c1)C(=O)N[C@@H](Cc1ccc(O)cc1)C(=O)N[C@@H](Cc1ccc2ccccc2c1)C(N)=O [Compound 17, Lys-Lys-Lys-Leu-(2-Nal)Ala-Tyr-(2-Nal)Ala] (HELM PEPTIDE1{K.K.K.L.[O=C([C@H](Cc1ccc2ccccc2c1)N[*:1])[*:2]].Y.[O=C([C@H](Cc1ccc2ccccc2c1)N[*:1])[*:2]].[am]}$$$$V2.0)	> 64	100	59.6	61.1	78.1	19.9	100	74.7	16 (≈ 14.9 µM)	> 64	81.4			
71.2	> 150	> 150	CCCC[C@H](NC(=O)[C@H](CCCCN)NC(=O)[C@H](CCCCN)NC(=O)[C@@H](N)CCCCN)C(=O)N[C@@H](Cc1ccc2ccccc2c1)C(=O)N[C@@H](Cc1ccc(O)cc1)C(=O)N[C@@H](Cc1ccc2ccccc2c1)C(N)=O [Compound 22, Lys-Lys-Lys-Nle-(2-Nal)Ala-Tyr-(2-Nal)Ala] (HELM PEPTIDE1{K.K.K.[Nle].[O=C([C@H](Cc1ccc2ccccc2c1)N[*:1])[*:2]].Y.[O=C([C@H](Cc1ccc2ccccc2c1)N[*:1])[*:2]].[am]}$$$$V2.0)	64 (≈ 59.7 µM)	83	30.9	88.3	23.7	< 8	24.2	83.0	2 to 4	64 (≈ 59.7 µM)				
